How the values were obtained:
Format in all cases: cell-based
[1] = system: Pseudomonas aeruginosa; test: Microbiological evaluation of standardised bacterial suspensions, modified wound dressing with absorbed substrate on agar; set-up: key to Observable colour change: − indicates no colour change; +− indicates relatively discernible blue colour change; + indicates a moderately strong blue colour change; ++ indicates a strong blue colour change
Protocol: (§1) ACTIVHEAL® simply A (10×20 cm) non-adhesive foam samples were provided by Advanced Medical Solutions Ltd. The wound dressings were cut into ~5-10×5-10 mm squares, using an ethanol washed pair of scissors. A maximum of 0.20 g of the material was added into 10 mL DI water, and the pH was adjusted to ~3 by the addition of 0.1 M aq. HCl solution. The solution was stirred for 10 mins at room temperature, followed by the addition of 0.33 g EDC •HCl (1.7 mmol) and the pH was maintained at ~3 by the addition of 0.1 M aq. HCl solution. The solution was stirred at room temperature for 10 mins followed by the addition of 0.88 g compound 8 which was dissolved in DMSO or DMF. The mixture was stirred at room temperature for 48 h. The wound dressings were filtered and were washed with ethanol. To ensure the full removal of any non-coupled amide (8), the foam samples were resuspended in ethanol, stirred for 10 mins and filtered, and this process was repeated until the amide (8) was not detectable from the filtrate (this could be maintained by TLC or HPLC evaluation). The samples were dried in a vacuum oven for 3-4 h.
(§2) The aqueous solution of 3a or 3b was prepared by the following: the desired amount of the enzymatic substrate (3.0 mg for 300 mg/L, 6.0 mg for 600 mg/L, 9.0 mg for 900 mg/L, 15.0 mg for 1500 mg/L, and 30.0 mg for 3000 mg/L) was weighed out on a 4 decimal place balance within ±0.3 mg error limit into a 10 mL volumetric flask and was adjusted to 10.0 mL with DI water. The solutions were absorbed into the foam samples and dried in a vacuum oven at 40° C. overnight.
(§3) Bacterial strains were routinely cultured from working stocks in Tryptic Soy Broth (TSB) and incubated at 37° C. overnight with shaking at 150 RPM. Overnight cultures were centrifuged at 3000×g for 5 minutes, the supernatant discarded, and the pellet resuspended in 10 mL phosphate buffered saline (PBS). Bacterial inoculums were standardised by optical density at 600 nm on an Amersham Biosciences Ultrospec 10 spectrophotometer (Amersham Biosciences, Amersham, UK) to contain between 1 and 3×10^8 CFU/mL.
(§4) However, rapid evaluation of lower bacteria concentrations is essential for the desired clinical application. […] The solutions were absorbed into the wound dressing samples, which were dried overnight under vacuum at 40° C.
(§5) Two Gram negative strains (Escherichia coli—EC and Pseudomonas aeruginosa—PSA) and a Gram-positive bacterium (Staphylococcus aureus—SA) were evaluated. The bacteria were incubated overnight, centrifuged at 3000×g for 5 mins, the supernatant was discarded, and the residue pellets were resuspended in 10 mL PBS. The inoculums were standardised by measuring the optical density at 600 nm to assure a 1-3×10^8 CFU/mL. The standardised solutions were further diluted to prepare 1-3×10^6 and 1-3×10^4 CFU/mL suspension. 1×10^6 CFU would be an ideal breakpoint for a positive result, as this concentration coincides well with a level of colonisation that would likely go on to produce an infection.
(§6) 100 μL bacterial suspensions were smeared over agar plates. Wound dressing samples were added to the top of the agar and were rolled over a few times (to ensure a full coverage and to ease the visibility of the colour change). The plates were incubated at 37° C., and the results were recorded after 24 h, after 48 h, after 72 h. The results are shown in Table 3-5; − indicates no colour change, +− indicates relatively discernible blue colour change, + indicates a moderately strong blue colour change and ++ indicates a strong blue colour change.

[2] = system: Staphylococcus aureus; test: as above; set-up: key to Observable colour change: − indicates no colour change; +− indicates relatively discernible blue colour change; + indicates a moderately strong blue colour change; ++ indicates a strong blue colour change; conditions: for colour change: SA
Protocol: as §1, §2, §3, §4, §5, §6

[3] = system: Pseudomonas aeruginosa; test: Microbiological evaluation of overnight bacteria suspensions, modified alginate wound dressing with absorbed substrate on agar; conditions: PSA overnight culture, 24 h incubation at 37° C.
Protocol: as §1, §2
To model fluid exudate from a chronic wound, the wound dressing made according to ‘Modification of ActivHeal® Alginate’, above, was placed into an agar plate and the test pathogen was smeared over the surface of the agar.
The enzymatic substrates were tested in 4 different concentrations (300, 600, 900 and 3000 mg/L) using DI water as a solvent, and the solutions were absorbed into the wound dressing samples, which were dried overnight under vacuum at 40° C.
Two Gram negative strains (Escherichia coli—EC and Pseudomonas aeruginosa—PSA) and a Gram positive bacteria (Staphylococcus aureus—SA) were evaluated against the dimethyl (3a) and the diethyl (3b) substituted substrate. The overnight cultures were directly smeared from LB broth onto Columbia blood agar without measuring the OD. The wound dressings with the enzymatic substrate absorbed were placed onto the agar and were incubated overnight (see FIGS. 2-7).

CC(C)C[C@H](N)C(=O)Nc1ccc(N(C)C)cc1.Cl [3a, (2S)-2-amino-N-[4-(dimethylamino)phenyl]-4-methyl-pentanamide hydrochloride]
+−: Observable colour change ([1]; PSA 10^4, substrate 900 mg/L, 48 h at 37° C.) | Observable colour change ([1]; PSA 10^6, substrate 1500 mg/L, 48 h at 37° C.) | Observable colour change ([2]; SA 10^8, substrate 1500 mg/L, 48 h at 37° C.) | Observable colour change ([2]; SA 10^8, substrate 1500 mg/L, 72 h at 37° C.)
Light blue: Observable colour change ([3]; substrate 600 mg/L)
weak, but discernible colour change: colour change ([2]; 48 h paragraph, substrate 1500 mg/L)
None: Observable colour change ([3]; substrate 300 mg/L)
++: Observable colour change ([1]; PSA 10^4, substrate 900 mg/L, 72 h at 37° C.) | Observable colour change ([1]; PSA 10^4, substrate 1500 mg/L, 72 h at 37° C.) | Observable colour change ([1]; PSA 10^6, substrate 900 mg/L, 72 h at 37° C.) | Observable colour change ([1]; PSA 10^8, substrate 900 mg/L, 72 h at 37° C.) | Observable colour change ([1]; PSA 10^8, substrate 1500 mg/L, 72 h at 37° C.)
moderate or strong colour change: colour change ([1]; PSA, substrate 900 or 1500 mg/L, printed in the 48 h paragraph)
Blue: Observable colour change ([3]; substrate 900 mg/L) | Observable colour change ([3]; substrate 3000 mg/L)
moderate or strong blue colour changes: colour change ([1]; PSA 10^8, 10^6 or 10^4 CFU, after 72 h, every tested substrate concentration)
−: Observable colour change ([1]; PSA 10^4, substrate 300 mg/L, 24 h at 37° C.) | Observable colour change ([1]; PSA 10^4, substrate 300 mg/L, 48 h at 37° C.) | Observable colour change ([1]; PSA 10^4, substrate 900 mg/L, 24 h at 37° C.) | Observable colour change ([1]; PSA 10^4, substrate 1500 mg/L, 24 h at 37° C.) | Observable colour change ([1]; PSA 10^4, substrate 1500 mg/L, 48 h at 37° C.) | Observable colour change ([1]; PSA 10^6, substrate 300 mg/L, 24 h at 37° C.) | Observable colour change ([1]; PSA 10^6, substrate 300 mg/L, 48 h at 37° C.) | Observable colour change ([1]; PSA 10^6, substrate 900 mg/L, 24 h at 37° C.) | Observable colour change ([1]; PSA 10^6, substrate 900 mg/L, 48 h at 37° C.) | Observable colour change ([1]; PSA 10^6, substrate 1500 mg/L, 24 h at 37° C.) | Observable colour change ([1]; PSA 10^8, substrate 300 mg/L, 24 h at 37° C.) | Observable colour change ([1]; PSA 10^8, substrate 300 mg/L, 48 h at 37° C.) | Observable colour change ([1]; PSA 10^8, substrate 900 mg/L, 24 h at 37° C.) | Observable colour change ([1]; PSA 10^8, substrate 1500 mg/L, 24 h at 37° C.) | Observable colour change ([2]; SA 10^4, substrate 300 mg/L, 24 h at 37° C.) | Observable colour change ([2]; SA 10^4, substrate 300 mg/L, 48 h at 37° C.) | Observable colour change ([2]; SA 10^4, substrate 300 mg/L, 72 h at 37° C.) | Observable colour change ([2]; SA 10^4, substrate 900 mg/L, 24 h at 37° C.) | Observable colour change ([2]; SA 10^4, substrate 900 mg/L, 48 h at 37° C.) | Observable colour change ([2]; SA 10^4, substrate 900 mg/L, 72 h at 37° C.) | Observable colour change ([2]; SA 10^4, substrate 1500 mg/L, 24 h at 37° C.) | Observable colour change ([2]; SA 10^4, substrate 1500 mg/L, 48 h at 37° C.) | Observable colour change ([2]; SA 10^4, substrate 1500 mg/L, 72 h at 37° C.) | Observable colour change ([2]; SA 10^6, substrate 300 mg/L, 24 h at 37° C.) | Observable colour change ([2]; SA 10^6, substrate 300 mg/L, 48 h at 37° C.) | Observable colour change ([2]; SA 10^6, substrate 300 mg/L, 72 h at 37° C.) | Observable colour change ([2]; SA 10^6, substrate 900 mg/L, 24 h at 37° C.) | Observable colour change ([2]; SA 10^6, substrate 900 mg/L, 48 h at 37° C.) | Observable colour change ([2]; SA 10^6, substrate 900 mg/L, 72 h at 37° C.) | Observable colour change ([2]; SA 10^6, substrate 1500 mg/L, 24 h at 37° C.) | Observable colour change ([2]; SA 10^6, substrate 1500 mg/L, 48 h at 37° C.) | Observable colour change ([2]; SA 10^6, substrate 1500 mg/L, 72 h at 37° C.) | Observable colour change ([2]; SA 10^8, substrate 300 mg/L, 24 h at 37° C.) | Observable colour change ([2]; SA 10^8, substrate 300 mg/L, 48 h at 37° C.) | Observable colour change ([2]; SA 10^8, substrate 300 mg/L, 72 h at 37° C.) | Observable colour change ([2]; SA 10^8, substrate 900 mg/L, 24 h at 37° C.) | Observable colour change ([2]; SA 10^8, substrate 900 mg/L, 48 h at 37° C.) | Observable colour change ([2]; SA 10^8, substrate 900 mg/L, 72 h at 37° C.) | Observable colour change ([2]; SA 10^8, substrate 1500 mg/L, 24 h at 37° C.)
weak, hardly visible colour change: colour change ([2]; after 72 h, substrate 1500 mg/L)
+: Observable colour change ([1]; PSA 10^4, substrate 300 mg/L, 72 h at 37° C.) | Observable colour change ([1]; PSA 10^6, substrate 300 mg/L, 72 h at 37° C.) | Observable colour change ([1]; PSA 10^6, substrate 1500 mg/L, 72 h at 37° C.) | Observable colour change ([1]; PSA 10^8, substrate 300 mg/L, 72 h at 37° C.) | Observable colour change ([1]; PSA 10^8, substrate 900 mg/L, 48 h at 37° C.) | Observable colour change ([1]; PSA 10^8, substrate 1500 mg/L, 48 h at 37° C.)
